Assay results reported in patent publication US5387680A, “C-22 ring stabilized rapamycin derivatives” (American Home Products Corporation, priority 1993, dated 1995).
Where “and” joins values, the source holds several entries; their conditions need not be identical. Equal values may be shown once. Read-outs that look alike come from different tables or passages of the source.

Assays:
[1] = system: lymphocyte proliferation (LAF); cells from the thymus of normal BALB/c mice; experiment: comitogen-induced thymocyte proliferation procedure (LAF); type: cell-based; conditions: read-out: LAF IC50
Procedure: The immunosuppressive activities for representative compounds of this invention were evaluated in an in vitro standard pharmacological test procedure to measure lymphocyte proliferation (LAF) and in an in vivo standard pharmacological test procedure which evaluated the survival time of pinch skin grafts. […] Cells are harvested and incorporated radioactivity is determined. Inhibition of lymphoproliferation is assessed as percent change in counts per minute from non-drug treated controls. The results are expressed as an IC50.

[2] = stability in 0.1M phosphate buffer via HPLC; type: physicochemical
Procedure: In addition, the stability of representative compounds was tested, via HPLC, in 0.1M phosphate buffer (pH 7.4, 37° C.).

[3] = system: pinch skin graft from male DBA/2 donors transplanted to male BALB/c recipients; experiment: survival time of pinch skin graft; type: in vivo, mice; conditions: for Skin Graft (days), mean graft survival time: intraperitoneally, ± S.D.
Procedure: Representative compounds of this invention were also evaluated in an in vivo test procedure designed to determine the survival time of pinch skin graft from male DBA/2 donors transplanted to male BALB/c recipients. The method is adapted from Billingham R. E. and Medawar P. B., J. Exp. Biol. 28:385-402, (1951). Briefly, a pinch skin graft from the donor is grafted on the dorsum of the recipient as a homograft, and an autograft is used as control in the same region. The recipients are treated with either varying concentrations of cyclosporin A as test control or the test compounds, intraperitoneally. Untreated recipients serve as rejection control. The graft is monitored daily and observations are recorded until the graft becomes dry and forms a blackened scab. This is considered as the rejection day. The mean graft survival time (number of days±S.D.) of the drug treatment group is compared with the control group.

[4] = system: smooth muscle cell proliferation and intimal thickening following vascular injury; conditions: cited from earlier work
[5] = system: insulin dependent diabetes mellitus; conditions: cited from earlier work
[6] = system: adjuvant arthritis model, a model for rheumatoid arthritis; conditions: cited from earlier work
Candida albicans = conditions: particularly against Candida albicans, both in vitro and in vivo; cited from earlier work
[7] = system: experimental allergic encephalomyelitis model, a model for multiple sclerosis; conditions: cited from earlier work
[8] = system: systemic lupus erythematosus; conditions: cited from earlier work
[9] = alone or in combination with picibanil; cited from earlier work
[10] = system: formation of IgE-like antibodies; conditions: cited from earlier work
[11] = BALB/c mouse thymocytes, PHA and IL-1, 72 hours
[12] = 0.1m phosphate buffer, pH 7.4 buffer, 0.1M phosphate, 37° C., read-out: Stability (converted)

With CCC12CCCCN1C(=O)C(=O)[C@]1(O)O[C@@H](CC[C@H]1C)C[C@H](OC)/C(C)=C/C=C/C=C/[C@@H](C)C[C@@H](C)C(=O)[C@H](OC)[C@H](O)/C(C)=C/[C@@H](C)C(=O)C[C@@H]([C@H](C)C[C@@H]1CC[C@@H](O)[C@H](OC)C1)OC2=O (stereo partly shown) [22-ethyl-rapamycin, C-22-ethyl-rapamycin] the IC50 [1, 11] was 0.14 µM.
With CO[C@H]1C[C@@H]2CC[C@@H](C)[C@@](O)(O2)C(=O)C(=O)N2CCCCC2(C)C(=O)O[C@H]([C@H](C)C[C@@H]2CC[C@@H](O)[C@H](OC)C2)CC(O)[C@H](C)/C=C(\C)[C@@H](O)[C@@H](OC)C(=O)[C@H](C)C[C@H](C)/C=C/C=C/C=C/1C (stereo partly shown) [22-methyl-27-hydroxyrapamycin, C-22-methyl-C-27-hydroxy-rapamycin] the half-life ([2]; 0.1m phosphate buffer, pH 7.4) was 21.8 h and the IC50 [1, 11] was 0.0099 µM.
In the case of CO[C@H]1C[C@@H]2CC[C@@H](C)[C@@](O)(O2)C(=O)C(=O)N2CCCCC2(C)C(=O)O[C@H]([C@H](C)C[C@@H]2CC[C@@H](O)[C@H](OC)C2)CC(=O)[C@H](C)/C=C(\C)[C@@H](O)[C@@H](OC)C(=O)[C@H](C)C[C@H](C)/C=C/C=C/C=C/1C (stereo partly shown) [22-methyl-rapamycin, C-22-methyl-rapamycin], the half-life ([2]; 0.1M phosphate buffer, pH 7.4, 37° C., read-out: half life in stability test (converted)) is reported as 38 h, the “Skin Graft (days), mean graft survival time” value (“Skin Graft (days)” for short) ([3]; 4 mg/kg) is reported as 9.33 ± 0.52 days and 9.00 ± 0.63 days and the “Skin Graft (days)” value ([3]; *tested at 16 mg/kg) is reported as 10.17 ± 0.55 days. For the same compound, the “graft survival time (in words)” value ([3]; relative to grafts without immunosuppressive agent (rejected within 6-7 days)) was “increased survival time” and the IC50 [1, 11] was 0.0235 µM.
COC1CC2CCC(C)C(O)(O2)C(=O)C(=O)N2CCCCC2(C)C(=O)OC(C(C)CC2CCC(OC(=O)CN(C)C)C(OC)C2)CC(=O)C(C)C=C(C)C(O)C(OC)C(=O)C(C)CC(C)C=CC=CC=C1C (stereo not shown) [C-22-methyl-42-dimethylglycine-rapamycin, C-22-methyl-42-dimethylglycine rapamycin] showed a half-life [2, 12] of 13.5 h and an IC50 [1, 11] of 0.0199 µM.
In the case of CO[C@H]1C[C@@H]2CC[C@@H](C)[C@@](O)(O2)C(=O)C(=O)N2CCCC[C@H]2C(=O)O[C@H]([C@H](C)C[C@@H]2CC[C@@H](O)[C@H](OC)C2)CC(=O)[C@H](C)/C=C(\C)[C@@H](O)[C@@H](OC)C(=O)[C@H](C)C[C@H](C)/C=C/C=C/C=C/1C [rapamycin], the “half life in stability test” value ([2]; 0.1M phosphate buffer, pH 7.4, 37° C.) is listed as 12 to 13 h, the half-life [2, 12] is listed as 12 to 13 h and the “effect on smooth muscle cell proliferation and intimal thickening” value [4] is listed as “useful in preventing or treating”. For the same compound, the “effect in insulin dependent diabetes mellitus” value [5] was “useful in preventing or treating”, the “effect in adjuvant arthritis model” value [6] was “effective” and the “Skin Graft (days)” value ([3]; 4 mg/kg) was 12.01 ± 0.26 days. The antifungal activity (Candida albicans) was “antifungal activity, particularly against Candida albicans, both in vitro and in vivo”, the “effect in experimental allergic encephalomyelitis model” value [7] was “effective” and the “effect in systemic lupus erythematosus” value [8] was “useful in preventing or treating”. The antitumor activity [9] was “antitumor activity”, the “inhibition of formation of IgE-like antibodies” value [10] was “effectively inhibited” and the IC50 ([1]; Mus musculus, 72 h) was 0.0004 to 0.0094 µM.
